{"source": "patent US20240110200A1", "about": "“Recombinant AAV Vectors and Gene Therapies for Treating Brain Diseases” (City University of Hong Kong, priority 2022, published 2024)", "key": {"[1]": {"system": "GFAP+ cells / Camkll+ cells in cortex and hippocampus", "assay": "GFAP and Camkll immunostaining of TLE mouse brain", "type": "in vivo, C57BL/6J male mice", "conditions": "right intrahippocampal KA-injection; n=10 sections from N=4 mice", "procedure": "For immunohistochemistry, mice are deeply anaesthetized by an overdose of pentobarbital sodium. Mice are transcardially perfused with 30 mL cold phosphate-buffered saline (PBS) and 30 mL 4% (w/v) paraformaldehyde (4% PFA). Brain tissue is removed, post-fixed with 4% PFA, and treated with 30% (w/v) sucrose in 4% PFA at 4° C. for 2˜3 days. Brain tissue is sectioned on a cryostat (30 μm for standard staining and 10 μm for Super-Resolution imaging) (Leica CM3500, Germany) and preserved with antifreeze buffer (20% (v/v) glycerine and 30% (v/v) ethylene glycol diluted in PBS) at −20° C. For immunostaining and statistics of co-labelled neurons and axonal synapses in the AC, serial sections containing the AC are selected for analysis. […]\nImages are took at 20× magnification and montaged together with the same laser settings between the parallel studies. […] For quantification of co-localization, neurons expressing the indicated reporter are counted using only the corresponding color channel. Then, among these cells, the number of neurons co-expressing the marker of interest is counted by the Nikon imaging analysis software (NIS-Elements Viewer 5.21). […] A neuron is positive for a given marker if the corresponding signal is above background fluorescence. The ratio of neurons co-expressing both markers over the total number of cells expressing only the reporter is then calculated. […]"}, "[2]": {"system": "KA-induced chronic epileptic mice", "assay": "Intrahippocampal kainic acid injection-induced chronic epilepsy (TLE) model, seizure monitoring by MMRS", "type": "in vivo, C57BL/6J male mice", "conditions": "650 nL KA (0.3 mg/mL) intrahippocampal, no intervention", "procedure": "C57BL/6J male mice (6˜7 weeks old) are anaesthetized with pentobarbital (100 mg/kg), a craniotomy is performed perpendicularly to the […] of the hippocampus (−2.06 mm posterior to the bregma, −1.80 mm to the midline, and −1.60 mm to the dura), and 650 nL KA (0.3 mg/mL) is injected at a speed of 30 nL/min.\nUpon recovering from the anesthesia, the mice are monitored for at least an hour for any signs of acute epileptic seizures before being placed back into their cages for routine monitoring. For the mice only injected with KA (FIG. S16), they are monitored for 16 weeks after the KA injection.\nThe mice are housed separately under a standard 12-h light/dark cycle and stable temperature (23-25° C.) with free access to food and water. Each KA-injected mouse is monitored and recorded 24 h per day using a 360-smart camera for a minimum of three weeks after surgery. […]\nThe seizures of the mice are evaluated in a blinded manner; the examiners of the video are blind to the history of the mice. […]\nAfter the C57bL/6J male mice (9-10 weeks old) show a stable occurrence of spontaneous recurrent seizures, epileptic mice are randomly divided into two groups (experimental and control). The daily seizure occurrence is recorded for 2 weeks as the pre-treatment baseline for each mouse (FIG. 6). […]"}}}
{"compound": "C=C(C)[C@H]1CN[C@H](C(=O)O)[C@H]1CC(=O)O", "note": "[KA, Kainic Acid]", "values": [{"measurement": "GFAP+ cells in the right hippocampus after 16 weeks", "setting": "[1]", "value": "748.56±74.88", "unit": "per mm^2"}, {"measurement": "recurrent convulsive seizures of stages 3 to 5 at week 4", "setting": "[2]", "value": "5.2±1.52", "unit": "seizures per day"}]}
